From patent US10987346B2, “Iloperidone for the treatment of schizophrenia” (Vanda Pharmaceuticals, Inc., priority 2015, dated 2021)

Key:
[1] = test system: patients with schizophrenia; test: Randomized withdrawal relapse-prevention study (NCT01291511): efficacy assessments; type: in vivo, human; conditions: for Avg Time to Relapse or Impending Relapse: full analysis population; for Hazard Ratio (95% CI): favoring iloperidone over placebo
Experimental: Study subjects were adults with schizophrenia who were first treated with open-label iloperidone 12 mg/day given as 6 mg BID and then stabilized for a further 14-24 weeks with a flexible-dose iloperidone regimen as per investigator judgment ranging between 8-24 mg/day daily dose (given BID). Subjects who remained clinically stable for at least 12 weeks entered the relapse prevention phase and were randomized 1:1 to either continue on the same flexible dose regimen of iloperidone or to withdraw from iloperidone to matched placebo in a double-blinded fashion. Subjects were followed for up to 26 weeks and were withdrawn upon showing signs of relapse or impending relapse. A pre-defined unblinded interim analysis (IA) was conducted utilizing a group sequential testing procedure with an O'Brien-Fleming stopping boundary after 68 relapse or impending relapse events were observed. The primary outcome was time-to-relapse or impending relapse with event criteria defined in the protocol prior to first subject enrollment.
A randomized, double-blind, placebo-controlled, parallel-group study (ClinicalTrials.gov identifier NCT01291511) was performed at 27 centers in the United States, 15 in India and 24 in Ukraine.
The study consisted of five phases, the first four of which are shown in FIG. 1: screening phase, open-label titration phase, open-label stabilization phase, double-blind randomized withdrawal phase, and open-label extension phase (not shown).
In the Open-Label Titration Phase, patients received iloperidone 1, 2, 4, 6, 6, 6, 6 mg twice daily on Days 1 through 7, respectively. All previous antipsychotic treatments were discontinued prior to, or within 4 days, after the first day of iloperidone treatment. If the Investigator felt that it was necessary to titrate down the previous antipsychotic medication, the dose reduction was to be done within the first 4 days initiating iloperidone treatment (i.e., previous medication fully discontinued by Day 4).
In the Open-Label Stabilization Phase, patients received flexible doses of iloperidone 4 to 12 mg twice daily (8 to 24 mg/day). Patients needed to be clinically stable for a minimum of 12 weeks prior to randomization.
In the Double-Blind Randomized Withdrawal Phase, patients were randomized to receive iloperidone or placebo. Patients randomized to iloperidone initially took the dose level being received during the last 4 weeks of the Stabilization Phase and then treated with flexible doses of iloperidone 4 to 12 mg twice daily (8 to 24 mg/day).
Patients needed to be clinically stable throughout the last 12 weeks of the Stabilization Phase to be eligible for randomization. “Clinically stable” adult outpatients were defined as: meeting DSM-IV criteria for schizophrenia, and remaining stable following 12 weeks of open-label treatment with flexible doses of iloperidone, being on an established dose of iloperidone that remained unchanged due to efficacy during the 4 weeks prior to randomization; PANSS total score ≤70 and CGI-S score ≤4; Score of ≤4 on each of the following individual PANSS items: P1 (delusion), P2 (conceptual disorganization), P3 (hallucinatory behavior), P6 (suspiciousness/persecution), P7 (hostility), or G8 (uncooperativeness); and no hospitalization or increase in level of care to treat exacerbations.
The primary efficacy endpoint was time to relapse or impending relapse. Relapse or impending relapse during the double-blind relapse prevention phase was defined as any of the following: hospitalization (voluntary or involuntary) due to worsening of schizophrenia; an increase (worsening) of the PANSS total score of ≥30% from randomization, confirmed at a second visit conducted with 1 to 7 days later; patient had clinically significant suicidal, homicidal, or aggressive behavior; CGI-I score of ≥6 (much worse) or 7 (very much worse) after randomization; or an increase in iloperidone dose or in need of additional antipsychotic treatment. […]

[2] = test system: patients with schizophrenia; test: Randomized withdrawal relapse-prevention study (NCT01291511): safety assessments; type: in vivo, human; conditions: for Patients with at least 1 TEAE: Full Analysis Population; for Primary Reason for Discontinuation: Abnormal Laboratory Value(s) / Primary Reason for Discontinuation: Abnormal Test Procedure Result(s) / Primary Reason for Discontinuation: Adverse Event(s) / Primary Reason for Discontinuation: Death: interim analysis population, % of discontinued
Text: Safety assessments included collection of adverse events (AEs), clinical laboratory evaluations, 12-lead electrocardiograms (ECGs), body weight, vital signs, Columbia Suicide Severity Rating Scale (C-SSRS), and movement disorder rating scales (Barnes Akathisia Scale [BAS], Abnormal Involuntary Movement Scale [AIMS], and Simpson Angus Scale [SAS]).
The safety population was defined for each study phase (Titration and Stabilization or Double-Blind Relapse Prevention). For each phase, the safety population included all patients who received at least 1 dose of study medication during the corresponding phase. Descriptive statistics by study phase for each of the safety assessments were calculated.

[3] = Double-Blind Relapse Prevention Phase, N = 151
[4] = Relapse Prevention Phase, end of the study
[5] = Titration and Stabilization Phase
[6] = Titration/Stabilization Phase, N = 629
[7] = end of Titration and Stabilization Phase

Compound: COc1cc(C(C)=O)ccc1OCCCN1CCC(c2noc3cc(F)ccc23)CC1 [iloperidone]
- Avg Time to Relapse or Impending Relapse ([1]; 8 mg/d, n=18): <30 days
- Avg Time to Relapse or Impending Relapse ([1]; 12 mg/d, n=58): >120 days
- Avg Time to Relapse or Impending Relapse ([1]; 20 mg/d, n=14): >120 days
- Average Time to Relapse ([1]; Final (FAS)): 140 days
- Relapse Rate ([1]; Final (FAS) (N = 151)): 17.9%
- Hazard Ratio (95% CI) ([1]; Final (FAS)): 5.2
- Hazard Ratio (95% CI) ([1]; Final (FAS), listed as Iloperidone): 5.2 (3.2, 8.4)
- Relapse Rate ([1]; Interim Analysis Population (N = 97)): 20.4%
- Hazard Ratio (95% CI) ([1]; Interim Analysis Population, Cox regression): 4.7
- Hazard Ratio (95% CI) ([1]; Interim Analysis Population, Cox regression, listed as Iloperidone): 4.7 (2.7, 8.3)
- Average Time to Relapse ([1]; Interim Analysis Population, KM estimates): 139 days
- CGI-I outcome in the majority of patients ([1]; Relapse Prevention Phase): showed improvement
- adjusted mean CGI-I score ([1]; Relapse Prevention Phase, LOCF): 3.3
- adjusted mean change from randomization baseline at endpoint in PANSS total score ([1]; Relapse Prevention Phase, LOCF): 2.3 points
- mean improvement on the PANSS total score ([1]; during Titration and Stabilization Phase, patients randomized in the IA (N=195)): −19.5±10.1 points
- time to relapse compared with placebo (FIG. 2) ([1]; interim analysis population, Kaplan-Meier): statistically significant longer time to relapse
- estimated relapse rate at the end of the double-blind relapse prevention phase (KM est.) ([1]; interim analysis, flexible dose 8-24 mg/day): 20.4%
- TEAE incidence: Dizziness [2, 3]: 4 (2.6) n (%)
- TEAE incidence: Dry Mouth [2, 3]: 0 n (%)
- TEAE incidence: Headache [2, 3]: 3 (2.0) n (%)
- TEAE incidence: Insomnia [2, 3]: 3 (2.0) n (%)
- TEAE incidence: Nausea [2, 3]: 2 (1.3) n (%)
- TEAE incidence: Schizophrenia [2, 3]: 3 (2.0) n (%)
- TEAE incidence: Somnolence [2, 3]: 2 (1.3) n (%)
- TEAE incidence: Weight increased [2, 3]: 2 (1.3) n (%)
- Patients with at least 1 TEAE [2, 3]: 60 (39.7) n (%)
- changes in AIMS scores ([2]; Relapse Prevention Phase): No clinically meaningful changes
- mean change from baseline in QTcF ([2]; Relapse Prevention Phase): 4.9 ms
- most common SAE: schizophrenia ([2]; Relapse Prevention Phase): 1.3%
- patients discontinued due to TEAEs ([2]; Relapse Prevention Phase): 6%
- patients reporting akathisia as TEAE ([2]; Relapse Prevention Phase): 1%
- patients reporting extrapyramidal disorder as TEAE ([2]; Relapse Prevention Phase): 1%
- patients who experienced a SAE ([2]; Relapse Prevention Phase): 4%
- patients who experienced a TEAE ([2]; Relapse Prevention Phase): 40%
- patients in whom akathisia was absent (BAS) ([2]; Relapse Prevention Phase, at completion): 95%
- mean change from baseline in weight [2, 4]: 0.02 kg
- patients with ≥7% increase in weight from baseline [2, 4]: 38%
- waist circumference versus placebo [2, 4]: no notable differences
- Primary Reason for Discontinuation: Abnormal Laboratory Value(s) ([2]; Relapse Prevention Phase): 3 (13) n (%)
- Primary Reason for Discontinuation: Abnormal Test Procedure Result(s) ([2]; Relapse Prevention Phase): 1 (4) n (%)
- Primary Reason for Discontinuation: Adverse Event(s) ([2]; Relapse Prevention Phase): 3 (13) n (%)
- Primary Reason for Discontinuation: Death ([2]; Relapse Prevention Phase): 1 (4) n (%)
- changes in Abnormal Involuntary Movement Scale (AIMS) scores [2, 5]: No clinically meaningful changes
- discontinuation due to TEAE: QT prolongation [2, 5]: 1.1%
- discontinuation due to TEAE: dizziness [2, 5]: 1.4%
- discontinuation due to TEAE: schizophrenia [2, 5]: 1.9%
- mean change from baseline in QTcF [2, 5]: 6.4 ms
- most common SAE: schizophrenia [2, 5]: 1.4%
- patients discontinued due to TEAEs [2, 5]: 15%
- patients reporting akathisia as TEAE [2, 5]: 4%
- patients reporting extrapyramidal disorder as TEAE [2, 5]: 3%
- patients who experienced a SAE [2, 5]: 4%
- patients who experienced a Treatment-Emergent Adverse Event (TEAE) [2, 5]: 69%
- patients who died while receiving iloperidone ([2]; Titration and Stabilization Phase, one patient, alcohol poisoning): 0.2%
- TEAE incidence: Dizziness [2, 6]: 73 (11.6) n (%)
- TEAE incidence: Dry Mouth [2, 6]: 43 (6.8) n (%)
- TEAE incidence: Headache [2, 6]: 40 (6.4) n (%)
- TEAE incidence: Insomnia [2, 6]: 35 (5.6) n (%)
- TEAE incidence: Nausea [2, 6]: 32 (5.1) n (%)
- TEAE incidence: Schizophrenia [2, 6]: 15 (2.4) n (%)
- TEAE incidence: Somnolence [2, 6]: 52 (8.3) n (%)
- TEAE incidence: Weight increased [2, 6]: 34 (5.4) n (%)
- Patients with at least 1 TEAE [2, 6]: 433 (68.8) n (%)
- Primary Reason for Discontinuation: Abnormal Laboratory Value(s) ([2]; Titration/Stabilization Phase): 19 (8) n (%)
- Primary Reason for Discontinuation: Abnormal Test Procedure Result(s) ([2]; Titration/Stabilization Phase): 5 (2) n (%)
- Primary Reason for Discontinuation: Adverse Event(s) ([2]; Titration/Stabilization Phase): 80 (32) n (%)
- Primary Reason for Discontinuation: Death ([2]; Titration/Stabilization Phase): 1 (<1) n (%)
- mean change from baseline in weight [2, 7]: 0.5 kg
- patients in whom akathisia was absent (Barnes Akathisia Scale) [2, 7]: 97%
- patients with ≥7% increase in weight from baseline [2, 7]: 17%
- QTcF prolongation in relation to dose/exposure ([2]; longer-term trial, higher exposures associated with more QT prolongation): dose-dependent
- adverse events during maintenance period ([2]; patients administered 16 mg/day or less): reduction in adverse events
- most common adverse events suspected to be related to iloperidone ([2]; stabilization phase): dizziness, somnolence and dry mouth
- patients with elevations in LDL ([2]; versus none on placebo): 2.6%
- patients with elevations in blood urea nitrogen (BUN) ([2]; versus none on placebo): 4.5%
